Reference: patent publication US4127687A, “Prevention of fouling of marine structures such as boat hulls” (Rohm and Haas Company, priority 1976, dated 1978)
Values after ≈ are worked out from the molar mass of the structure shown.

Columns and labels:
[1] = Amount of toxicant remaining in the test container after membrane diffusion raft tests; type: physicochemical; set-up: key: 0: empty or trace; +: some; + +: ample; conditions: after completion of membrane diffusion raft tests
Source text: (§1) A known quantity of the test compound is placed into a cylindrical plastic container whose open end is then covered with a membrane of known porosity; the complete unit is attached to the appropriate raft panel so that the poison can freely diffuse into the free water layer around it. Regular inspections, recording time and quantity of settlement, allow a life history of each membrane trial to be constructed. Each raft panel contains 35 compounds to be evaluated together with 4 standard poisons and 1 non-toxic membrane for control.
(§2) After the completion of membrane tests the contents of all containers are checked visually for poison loss. An empty container indicates an unacceptably high solubility for long term effectiveness; where the poison loss is low the compound is tested in one of two ways depending on its performance against fouling.
^b Amount of toxicants remaining in the test container after the
completion of the membrane diffusion raft tests: 0 = empty or trace, + =

[2] = test system: barnacle; test: Membrane Diffusion Raft Trials, barnacle control; type: in vivo, barnacles; conditions: membrane test, average 15 to 16 weeks of immersion
Source text: (§3) 1). FIELD TESTS: - Membrane Diffusion Raft Trials
(§4) A specially constructed raft provides three types
(§5) a). Waterline Well illuminated, aerated
(§6) b). Flats Poorly illuminated deeper
as §1
(§7) The behavior on the raft can thus be compared with that of the standard poisons and the non-toxic control. At normal loading a membrane over the standard poisons would be free from macro-fouling after six months immersion. Compounds showing selective effects against restricted groups of fouling organisms also show up by membrane testing.
as §2
(§8) In the membrane tests, the results of approximately 140 compounds evaluated appear in Table 1. The symbols "0" means no detactable effect, the symbol "+" indicates the compound is active against the given fouling organism, and the symbol "++" means that the compound appears to be effective over at least about a four month period for essentially preventing fouling activity by the given organism. In the Table, "weed" designates a grass-like algal growth common in sea water.
(§9) Membrane Test results are of an average 15 to 16 weeks of immersion,
(§10) ^a 0 = none, + = some, + + = effective.
^f The 1975 Spring settlement of barnacles was very meager and the […]

[3] = test system: weed; test: Membrane Diffusion Raft Trials, weed control; type: in vivo, grass-like algal growth common in sea water; conditions: membrane test, average 15 to 16 weeks of immersion
Source text: as §3, §4, §5, §6, §1, §7, §2, §8, §9, §10

[4] = Water solubility by UV spectrophotometric method; type: physicochemical; conditions: water, saturated solution; Table 1; read-out: Solubility by UV method
Description: The water solubilities of several isothiazolones were determined by UV spectrophotometric measurements of saturated aqueous solution of each compound in comparison with measurement of solutions of carefully prepared known concentration as outlined in the following example.
DETERMINATION OF SOLUBILITY OF 5-CHLORO-2-(4-FLUOROPHENYL)-4-METHYL-3-ISOTHIAZOLONE OF EXAMPLE 115
A sample of 5-chloro-2-(4-fluorophenyl)-4-methyl-3-isothiazolone (0.0406 g., 1.67 × 10^-4 mole) was dissolved in 50 ml. of methanol. A 5 ml. aliquot of the solution was diluted to 1000 ml. with deionized water, providing a solution of 1.67 × 10^-5 moles/liter concentration. An ultraviolet spectrum of this solution was run using a 10 cm. cell. The absorbance (As) at the wave length of maximum absorption (279 nm.) was 1.208. The molar absorptivity, AM, was calculated from the relationship
where b and c are path length or cell thickness and concentration respectively. Thus, AM was [formula]
Another sample of the compound (0.3-0.5 g.) was stirred vigorously in 40 ml. of deionized water for approximately 72 hrs. to give a saturated solution. The mixture was filtered through very fine filter paper (Whatman No. 50) to remove all suspended solid. Small portions of the filtrate were diluted with water by various factors until an approximately mid-scale absorbance was obtained upon running an ultraviolet spectrum. Such an absorbance was obtained at a dilution of 10. The absorbance was 0.975 in a 10 cm. cell. Using the value for AM obtained earlier, in the equation

[5] = test system: Enteromorpha spores; test: Laboratory toxicity test (Lab Bioassay) with Enteromorpha spores; type: in vivo; conditions: using Enteromorpha spores
Source text: Standard laboratory toxicity tests use Enteromorpha spores (zoospores or gametes) but Ectocarpus spores and barnacle nauplii may also be used. During the spore tests additional information on the control of bacterial and diatom slimes becomes available since these organisms are unavoidably introduced with the spore inoculum.
More detailed laboratory toxicity tests on promising compounds determine LD50 values as percentage saturated solution.
^c Using Enteromorpha spores.

[6] = test system: weed; test: Paint panel / plaque tests against weed (Table 2); type: in vivo, grass-like algal growth common in sea water; set-up: key: high performance; medium performance; low performance; poor or unacceptable performance; conditions: April to November, 1975
Source text: (3) PAINT FORMULATION AND TEST PANEL OR PLAQUE TESTS
In order to evaluate the compound under practical conditions, weighed quantities of promising compounds are ground in standard volumes of a selected range of paint media and brushed out on plaques for marine immersion.
The anti-fouling paint formulations used is exemplified by the following: […]
The most preferred specific compounds were utilized in paints including vinyl chloride-vinyl acetate copolymers, chlorinated rubber, acrylic emulsions, and conventional paints with or without rosin to contain 20% by weight of biocide in the wet film and in some cases (Example 144 and Example 145) with concentrations of 5, 10, and 15% based on the wet film. Each of the compounds is also described in the membrane tests noted above. The paints were applied at normal thicknesses to plaques or panels of 10 centimeters by 10 centimeters which were immersed in various positions as described for the raft noted above. The compounds and results, as against weed, in the season April to November, 1975, are as follows: […]

Row | SMILES | Contents at the end of test (amount of toxicants remaining in the test container) [1] | Barnacle Control [2] | Weed Control [3] | solubility [4] | Lab Bioassay LD50 [5] | Effectiveness in paint CONV (conventional anti-fouling formulation) [6] | Effectiveness in paint CR (chlorinated rubber) [6] | Effectiveness in paint CR/R (chlorinated rubber/rosin) [6] | Effectiveness in paint EM (acrylic emulsion) [6] | Effectiveness in paint V (polyvinyl chloride-acetate) [6] | Effectiveness in paint V/R (vinyl/rosin) [6]
1 | O=c1ccsn1-c1ccc(Cl)cc1 [Example 12] | + | + | + | 180 µg/mL (≈ 850 µM) | – | – | – | – | – | – | –
2 | CCCCCCn1scc(Br)c1=O [Example 47] | + | + + | 0 | – | > 1 percentage saturated solution | – | – | – | – | – | –
3 | O=c1cc(Cl)sn1C1CCCCC1 [Example 27] | + | + | 0 | 217 µg/mL (≈ 997 µM) | – | – | – | – | – | – | –
4 | O=c1ccsn1Cc1ccccc1 [Example 10] | 0 | 0 | 0 | 3000 µg/mL (≈ 15700 µM) | – | – | – | – | – | – | –
5 | O=c1cc(Cl)sn1CCc1ccccc1 [Example 29] | 0 | 0 | + + | 240 µg/mL (≈ 1000 µM) | – | – | – | – | – | – | –
6 | CCCCCCCCCCCCCCn1sccc1=O [Example 7] | + + | 0 | 0 | – | 0.1 percentage saturated solution | – | – | – | – | – | –
7 | CCCCCCCCCCCCCCn1sc(Cl)c(Cl)c1=O [Example 65] | + + | 0 | 0 | 0.9 µg/mL (≈ 2.46 µM) | – | – | – | – | – | – | –
8 | Cc1c(Cl)sn(Cc2ccccc2)c1=O [Example 109] | 0 | + | + + | 100 µg/mL (≈ 417 µM) | – | – | – | – | – | – | –
9 | CCCCCCCCn1sc(Cl)c(C)c1=O [Example 101] | 0 | + + | + + | 38 µg/mL (≈ 145 µM) | – | – | – | – | – | – | –
10 | CCCCCCCCCCCCCCCCn1sc(Cl)c(Cl)c1=O [Example 66] | + + | 0 | 0 | 0.5 µg/mL (≈ 1.27 µM) | – | – | – | – | – | – | –
11 | Cc1c(Cl)sn(-c2ccc(Cl)cc2)c1=O [Example 147] | – | – | – | – | – | p | h | h | m | h | h
12 | Cc1c(Cl)sn(-c2ccc(O)cc2)c1=O [Example 125] | + + | 0 | + + | – | > 1 percentage saturated solution | – | – | – | – | – | –
13 | CCCCCCn1sc(Cl)c(Br)c1=O [Example 87] | 0 | + + | + + | 85 µg/mL (≈ 285 µM) | – | – | – | – | – | – | –
14 | O=c1cc(Cl)sn1-c1ccc(Oc2ccccc2)cc1 [Example 39] | + + | + + | 0 | – | 0.6 percentage saturated solution | – | – | – | – | – | –
15 | Cc1c(Cl)sn(-c2ccccc2)c1=O [Example 111] | + | + | + + | 200 µg/mL (≈ 886 µM) | – | – | – | – | – | – | –
16 | Cc1c(Cl)sn(Cc2ccc(Cl)cc2)c1=O [Example 110] | + + | + | + | 34 µg/mL (≈ 124 µM) | – | – | – | – | – | – | –
17 | CCCCCCn1sc(Cl)cc1=O [Example 15] | 0 | 0 | 0 | 900 µg/mL (≈ 4100 µM) | – | – | – | – | – | – | –
18 | O=c1c(Cl)c(Cl)sn1Cc1ccccc1 [Example 148] | – | – | – | – | – | p | h | h | p | h | h
19 | Cc1c(Cl)sn(C2CCCCC2)c1=O [Example 107] | + | + | 0 | 350 µg/mL (≈ 1510 µM) | – | – | – | – | – | – | –
20 | O=c1c(Cl)c(Cl)sn1CCc1ccccc1 [Example 146] | – | – | – | – | – | h | h | h | p | h | h
21 | CCCCCCCCn1scc(Br)c1=O [Example 48] | + | 0 | 0 | 45 µg/mL (≈ 154 µM) | – | – | – | – | – | – | –
22 | O=c1c(Cl)c(Cl)sn1Cc1ccc(Cl)cc1 [Example 149] | – | – | – | – | – | h | – | h | h | l | h
23 | O=c1c(Cl)c(Cl)sn1-c1ccccc1 [Example 150] | – | – | – | – | – | p | p | h | p | m | h
24 | CCCCn1sc(Cl)c(Br)c1=O [Example 86] | 0 | 0 | + + | 1170 µg/mL (≈ 4320 µM) | – | – | – | – | – | – | –
25 | CCCCCCCCCCCCn1sc(Cl)c(Cl)c1=O [Example 64] | + + | + | 0 | 0.1 to 3 µg/mL (≈ 0.296 to 8.87 µM) | – | – | – | – | – | – | –
26 | CCCCc1ccc(-n2sc(Cl)c(C)c2=O)cc1 [Example 121] | – | + + | + + | – | 0.13 percentage saturated solution | – | – | – | – | – | –
27 | Cc1c(Cl)sn(-c2ccc(Cl)c(Cl)c2)c1=O [Example 134] | + + | 0 | 0 | 3.5 µg/mL (≈ 11.9 µM) | – | – | – | – | – | – | –
28 | O=c1cc(Cl)sn1-c1ccccc1 [Example 33] | + | + | + + | 180 µg/mL (≈ 850 µM) | – | – | – | – | – | – | –
29 | CCCCCCCCn1sc(Br)c(Br)c1=O [Example 95] | 0 | 0 | + + | 1.7 µg/mL (≈ 4.58 µM) | – | – | – | – | – | – | –
